Measurements: patent publication US20130039928A1, “COMPOSITIONS AND METHODS FOR REVERSING CORTICOSTEROID RESISTANCE OR TREATING RESPIRATORY INFECTIONS” (priority 2010, published 2013)
Entries after “also recorded” stand apart in the source; their conditions may differ.

Tests used:
IL-8 = experiment: Corticosteroid responsiveness: basal and LPS-induced IL-8 secretion by alveolar macrophages; assay type: cell-based, human
Description: (§1) For inducing corticosteroid resistance, PMs were exposed to cigarette smoke condensate (CSC, 100 μg/ml; Murty Pharmaceuticals, Lexington, Ky.) for 16 h. Exposure to S-nitrosoglutathione (GSNO, 10 μM) was limited to 4 h. […] For assessing corticosteroid responsiveness, macrophages were incubated with dexamethasone (1 μM, Sigma) for 1 h followed by LPS (100 ng/ml, Sigma) for additional 4 h.
For human IL-8 and mouse IL-6 and MCP-1 proteins, Quantikine ELISA kits from R&D systems (Minneapolis, Minn.) were used according to the manufacturer's instructions.

HDAC2 = assay type: cell-based, human
Description: as §1
(§2) HDAC activity was measured using a fluorescent derivative of ε-acetyl-lysine from Enzo life sciences (Farmingdale, N.Y.) according to the manufacturer's recommendations. HDAC2 was immunoprecipitated for analysis of enzymatic activity.
Macrophage cell or lung tissue extracts were prepared by using 100 μL of immunoprecipitation buffer (50 mM Tris-HCl, pH 8.0, 150 mM NaCl, 1.0% Triton X-100, 0.5% NP-40, 0.1% SDS, 0.5% deoxycholate, and complete protease inhibitor cocktail) from Roche (Morristown, N.J.). The lysis mixture was incubated on ice for 15 minutes and microcentrifuged for 10 minutes at 4° C. Extracts were precleared with 20 μL protein A/G sepharose beads (a 50:50 mix) from Thermo scientific (Rockford, Ill.) and 2 μg of normal IgG. After microcentrifugation, 20 μL of protein A/G sepharose conjugated with 5 μg of antibody was used to precipitate HDAC2 (Santa Cruz Biotechnology, Santa Cruz, Calif.) overnight at 4° C. with rotation. The immune complexes were pelleted with gentle centrifugation, washed twice with 1 mL of immunoprecipitation buffer, and divided equally for the final wash for the activity assay and immunoblotting. For the HDAC assay, immunoprecipitates were resuspended in the activity assay buffer (50 mM TrisHCl, pH 8.0; 10% glycerol; 1 mM dithiothreitol; 0.1 mM EDTA, complete protease inhibitor cocktail). For HDAC2-specific western blotting, immune complexes were washed three times with the immunoprecipitation buffer and finally resuspended in Laemmli buffer for the SDS-PAGE.

THP-1 macrophages = experiment: Phagocytosis of FITC-PA in THP-1 macrophages; assay type: cell-based, human
Description: BMDM were isolated by culturing bone marrow cells in the presence of 10 ng/ml granulocyte-macrophage colony-stimulating factor (PeproTech) for 7 days. Murine macrophages were cultured in RPMI 1640 medium supplemented with 10% FBS and 1% penicillin-streptomycin. The human THP-1 cell line (American Type Culture Collection, Manassas, Va.) was grown in RPMI 1640 medium supplemented with 10% non-heat-inactivated fetal bovine serum and β-mercaptoethanol per manufacturer's instructions. Macrophage differentiation occurred through supplementation with 20 ng/ml Phorbol 12-myristate 13-acetate (Sigma Aldrich, St. Louis, Mo.) for 48 h.
(§3) Bacterial phagocytosis was quantified using a flow cytometry analysis.
THP-1 cells were infected with lentivirus particles containing MARCO shRNA (Open Biosystems, Huntsville, Ala.). Puromycin supplemented medium ensured positive selection of lentivirus plasmid-expres sing cells, and knockdown of MARCO mRNA and protein was confirmed by both real-time PCR and western blot.

[1] = tested on: nontypeable Haemophilus influenzae; settings: COPD alveolar macrophages, compared to vehicle
Description: Human alveolar macrophages were purified from individual BAL samples by centrifugation and seeded onto 6-well tissue culture plates. After incubation for 2 h, non-adherent cells were removed and the adherent cells were incubated with R, S-sulforaphane (5 μM; LKT Laboratories, Inc., St. Paul, Minn.) and or DMSO in RPMI 1640 culture medium with 10% FBS and 1% penicillin-streptomycin (Invitrogen, Carlsbad, Calif.). After 16-20 h, adherent cells were scraped, suspended in RPMI 1640 culture media and plated onto 96-well tissue culture plates for bacterial phagocytosis and clearance assays. […] For MARCO antibody-depletion, alveolar macrophages were incubated with human anti-MARCO antibody (1 μg/ml; (Hycult, Uden, The Netherlands) for 4 hours prior to bacterial challenge.
Sputum isolates of nontypeable H. influenzae and P. aeruginosa obtained from patients with COPD at the Department of Veterans Affairs, Western New York Healthcare System were used (S. Sethi, N. Evans, B. J. Grant, T. F. Murphy, N Engl J Med 347, 465 (Aug. 15, 2002); C. S. Berenson, M. A. Garlipp, L. J. Grove, J. Maloney, S. Sethi, J Infect Dis 194, 1375 (Nov. 15, 2006); T. F. Murphy et al., Am J Respir Crit Care Med 177, 853 (Apr. 15, 2008); T. F. Murphy, A. L. Brauer, A. T. Schiffmacher, S. Sethi, Am J Respir Crit Care Med 170, 266 (Aug. 1, 2004)). […]
as §3

NO = NO levels and iNOS expression in alveolar macrophages; assay type: cell-based, human; settings: COPD alveolar macrophages, vs vehicle
Description: as §1, §2
Total RNA was extracted from the cells by lysis and specific binding to a silica membrance (Qiagen RNeasy kit, Qiagen, Valencia, Calif.), and qRT-PCR was performed by using primers and probe sets for human IL-8, NQO1, GCLM, and iNOS (Assay-on-Demand, Applied Biosystems, Foster City, Calif.). A real-time fluorescent PCR system (ABI 7000 Taqman system, Applied Biosystems) was used to perform these assays. β-actin was used as the normalization control.

Pseudomonas aeruginosa = settings: THP-1 macrophages, 10 μM for 24 hours
Description: To determine intracellular killing, macrophages were treated with vehicle (DMSO) or sulforaphane (10 μM) for 24 hours. Cells were then washed and the medium was replaced with serum-free medium. After the medium replacement, approximately 10^5 CFUs of PA were added to each well. After 1 h, the medium was removed and cells were washed, and the gentamicin-containing medium was added to kill bound, unphagocytosed bacteria. Cells were lysed at the indicated time points, and lysates were plated to determine viable intracellular bacteria.

## C[S+]([O-])CCCCN=C=S (stereo not drawn) [sulforaphane]
IL-8; in the presence of buthionine sulfoximine (BSO)
  DEX sensitivity (histone acetylation on IL-8 promoter, IL-8 expression): failed to improve DEX sensitivity
IL-8; sulforaphane alone, basally and after LPS treatment
  IL-8 levels: significantly reduced IL-8 levels
IL-8; sulforaphane treatment then DEX, P<0.01, N=25 patients
  DEX's inhibitory effect on basal and LPS-induced IL-8 secretion (fold reduction): 5 fold
HDAC2; COPD alveolar macrophages, P<0.01 versus vehicle
  enzymatic activity of HDAC2: approximately 2 fold
HDAC2; in the presence of BSO
  HDAC2 activity: failed to increase HDAC2 activity
HDAC2; treatment after GSNO exposure of alveolar macrophages
  HDAC2 enzymatic activity: significantly increased HDAC2 activity
THP-1 macrophages; THP-1 macrophages transfected with Luc-shRNA
  phagocytosis of FITC-Pseudomonas aeruginosa: significantly elevated phagocytosis
THP-1 macrophages; THP-1 macrophages with MARCO-shRNA
  phagocytosis of FITC-Pseudomonas aeruginosa: but not in MARCO-shRNA
[1]
  phagocytosis of FITC-labeled nontypeable Haemophilus influenzae: significantly enhanced phagocytosis
NO
  NO levels: significantly lower levels; also recorded: suppressed NO generation
  iNOS expression: significantly lower levels
Pseudomonas aeruginosa
  kinetics of intracellular killing: moderate increase in the kinetics of intracellular killing
